Data reported in patent US11066369B2, “N-(pyridin-2-yl)pyridine-sulfonamide derivatives and their use in the treatment of disease” (Novartis AG, priority 2016, dated 2021).
Counter-ions that a name gives are not always drawn.

Assays:
delF508-CFTR = target: T1, delF508-CFTR (Homo sapiens, UniProt P13569, DEL508-508); test: Measurement of delF508-CFTR functional activity in primary human bronchial epithelial cells (HBECs) using Multi-Transepithelial Clamp Circuit (MTECC-24) assay; format: cell-based; details: primary CF HBECs; for MTECC24 CFHBEC- Amax %: test compound added 24h before assay plus potentiator, relative to reference combination (2 μM corrector + 0.5 μM potentiator); for EC50: test compound added 24h before assay, in the presence of potentiator, mean of at least two replicates, read-out: MTECC24 CFHBEC- EC50
T1 construct: functional activity of the CFTR channel (Chloride ion transport) in patient derived primary human bronchial epithelial cells; host or cells: patient-derived primary human bronchial epithelial cells (delF508-CFTR)
Summary of the method: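 Compound tested as 10-point, 1-in-3 concentration response (0.1% or 0.2% DMSO), 24 h basolateral pre-incubation, then re-added to both sides. MTECC-24 measured Ieq in ALI-differentiated primary delF508 bronchial cells after amiloride, forskolin activation, potentiator and INH-172 block; data normalized to DMSO baseline, EC50 fitted.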

[1] = target: T2, horseradish peroxidase (HRP) tagged delF508-CFTR (Homo sapiens, UniProt P13569, DEL508-508); test: Measurement of delF508-CFTR-HRP surface expression in CFBE41o- cells; format: cell-based; details: delF508-CFTR-HRP surface expression, CFBE41o- cells; for EC50: read-out: DelF508-CFTR-HRP EC50; for Emax: read-out: DelF508-CFTR-HRP Amax %;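 on DelF508-CFTR-HRP Amax %: percent efficacy relative to reference corrector lumacaftor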
T2 construct: expressed in transfected cells
Summary of the method: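 Surface-trafficked delF508-CFTR detected via extracellular HRP tag, read as luminescence from a membrane-impermeant substrate in CFBE41o- cells. Cells pre-induced 48h with 500 ng/mL doxycycline, then exposed 24h at 37° C to a 10-point, 3-fold dilution series from 10 μM (DMSO ≤0.5%). Triplicate dose-responses fitted logistically for EC50 after per-plate normalization; fold change versus reference compound.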

T1 sequence (P13569 with tags, fused parts or gaps DEL508-508): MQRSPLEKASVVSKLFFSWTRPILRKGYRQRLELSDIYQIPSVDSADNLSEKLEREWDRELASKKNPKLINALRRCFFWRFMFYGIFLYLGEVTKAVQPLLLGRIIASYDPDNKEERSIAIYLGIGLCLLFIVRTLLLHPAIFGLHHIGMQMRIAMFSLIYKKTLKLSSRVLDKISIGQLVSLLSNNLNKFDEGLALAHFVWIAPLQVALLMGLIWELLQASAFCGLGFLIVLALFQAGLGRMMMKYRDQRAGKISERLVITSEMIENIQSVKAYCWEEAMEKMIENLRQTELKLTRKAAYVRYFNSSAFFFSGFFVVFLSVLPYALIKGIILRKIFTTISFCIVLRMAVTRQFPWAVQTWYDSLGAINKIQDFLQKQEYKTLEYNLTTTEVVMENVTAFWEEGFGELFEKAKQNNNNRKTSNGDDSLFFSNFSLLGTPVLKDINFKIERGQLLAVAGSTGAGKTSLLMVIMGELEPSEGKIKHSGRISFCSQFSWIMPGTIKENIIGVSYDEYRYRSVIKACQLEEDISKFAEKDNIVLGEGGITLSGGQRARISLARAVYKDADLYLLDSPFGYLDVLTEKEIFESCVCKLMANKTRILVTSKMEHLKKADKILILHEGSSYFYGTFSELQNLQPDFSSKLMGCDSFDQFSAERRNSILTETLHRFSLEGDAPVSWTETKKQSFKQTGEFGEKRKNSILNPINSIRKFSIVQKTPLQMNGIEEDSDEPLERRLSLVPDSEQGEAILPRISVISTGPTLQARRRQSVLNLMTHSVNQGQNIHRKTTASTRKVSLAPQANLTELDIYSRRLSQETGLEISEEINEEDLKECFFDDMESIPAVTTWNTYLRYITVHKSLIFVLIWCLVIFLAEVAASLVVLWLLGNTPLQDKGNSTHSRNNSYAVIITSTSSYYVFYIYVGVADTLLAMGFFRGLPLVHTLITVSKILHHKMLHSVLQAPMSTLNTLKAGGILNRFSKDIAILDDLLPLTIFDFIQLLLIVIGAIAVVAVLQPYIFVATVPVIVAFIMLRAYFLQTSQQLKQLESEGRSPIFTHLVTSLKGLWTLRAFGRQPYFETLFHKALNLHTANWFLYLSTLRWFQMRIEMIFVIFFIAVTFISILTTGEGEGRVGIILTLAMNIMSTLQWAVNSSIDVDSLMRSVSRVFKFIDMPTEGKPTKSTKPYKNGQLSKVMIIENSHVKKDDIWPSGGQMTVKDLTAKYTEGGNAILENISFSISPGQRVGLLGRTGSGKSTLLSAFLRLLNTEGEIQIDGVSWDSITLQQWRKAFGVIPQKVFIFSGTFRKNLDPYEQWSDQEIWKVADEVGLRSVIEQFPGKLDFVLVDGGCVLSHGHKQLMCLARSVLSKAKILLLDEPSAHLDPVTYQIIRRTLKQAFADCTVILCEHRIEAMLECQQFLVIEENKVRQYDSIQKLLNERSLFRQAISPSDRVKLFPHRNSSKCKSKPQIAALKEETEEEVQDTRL
T2 sequence (P13569 with tags, fused parts or gaps DEL508-508): as above

Compound	MTECC24 CFHBEC- Amax % (delF508-CFTR)	EC50 (delF508-CFTR)	EC50 [1]	Emax [1]
Cc1ccccc1-c1nc(NS(=O)(=O)c2cccc(N3CCN(CC(F)(F)F)CC3)n2)ccc1C(F)(F)F [Example 186, N-(6-(o-tolyl)-5-(trifluoromethyl)pyridin-2-yl)-6-(4-(2,2,2-trifluoroethyl)piperazin-1-yl)pyridine-2-sulfonamide]	81.5%	2.6 nM	1190 nM	
Cc1ccccc1-c1nc(NS(=O)(=O)c2cccc(N3CCN(C4COC4)CC3)n2)ccc1C(F)(F)F [Example 187, 6-(4-(oxetan-3-yl)piperazin-1-yl)-N-(6-(o-tolyl)-5-(trifluoromethyl)pyridin-2-yl)pyridine-2-sulfonamide]	78.8%	92 nM	2560 nM	634%
Cc1ccccc1-c1nc(NS(=O)(=O)c2cccc(N3CCN(C)CC3)n2)ccc1C(F)(F)F [Example 189, 6-(4-methylpiperazin-1-yl)-N-(6-(o-tolyl)-5-(trifluoromethyl)pyridin-2-yl)pyridine-2-sulfonamide]	79.0%	31.7 nM	2830 nM	414%
Cc1ccccc1-c1nc(NS(=O)(=O)c2cccc(N3CCNC(=O)C3)n2)ccc1C(F)(F)F [Example 190, 6-(3-oxopiperazin-1-yl)-N-(6-(o-tolyl)-5-(trifluoromethyl)pyridin-2-yl)pyridine-2-sulfonamide]	64.5%	13.2 nM	3410 nM	565%
Cc1ccccc1-c1nc(NS(=O)(=O)c2cccc(N3CCN(C(=O)CN)CC3)n2)ccc1C(F)(F)F [Example 191, 6-(4-glycylpiperazin-1-yl)-N-(6-(o-tolyl)-5-(trifluoromethyl)pyridin-2-yl)pyridine-2-sulfonamide hydrochloride]	64.4%	101 nM	3860 nM	206%
Cc1cccc(C)c1-c1nc(NS(=O)(=O)c2cccc(N3CCNCC3=O)n2)ccc1Cl [Example 192, N-(5-chloro-6-(2,6-dimethylphenyl)pyridin-2-yl)-6-(2-oxopiperazin-1-yl)pyridine-2-sulfonamide hydrochloride]	42.3%	16.1 nM	2520 nM	279%
Cc1ccc(F)cc1-c1nc(NS(=O)(=O)c2cccc(N3CCNCC3)n2)ccc1Cl [Example 193, N-(5-chloro-6-(5-fluoro-2-methylphenyl)pyridin-2-yl)-6-(piperazin-1-yl)pyridine-2-sulfonamide hydrochloride]	81.2%	178 nM	3920 nM	385%
Cc1ccccc1-c1nc(NS(=O)(=O)c2cccc(N3CCNCC3)n2)ccc1Cl [Example 195, N-(5-chloro-6-(o-tolyl)pyridin-2-yl)-6-(piperazin-1-yl)pyridine-2-sulfonamide hydrochloride]	80.0%	464 nM	3380 nM	213%
Cc1ccccc1-c1nc(NS(=O)(=O)c2cccc(N3CCN(C)C(=O)C3)n2)ccc1C(F)(F)F [Example 196, 6-(4-methyl-3-oxopiperazin-1-yl)-N-(6-(o-tolyl)-5-(trifluoromethyl)pyridin-2-yl)pyridine-2-sulfonamide]	82.4%	9.6 nM	3060 nM	389%
Cc1cccc(C)c1-c1nc(NS(=O)(=O)c2cccc(N3CCN(C)CC3=O)n2)ccc1Cl [Example 197, N-(5-chloro-6-(2,6-dimethylphenyl)pyridin-2-yl)-6-(4-methyl-2-oxopiperazin-1-yl)pyridine-2-sulfonamide]	73.9%	67 nM	3650 nM	500%
